Test results as given in patent publication US8993515B2, “Peptidomimetics comprising N-amino cyclic urea residues and uses thereof” (Valorisation-Recherche, Limited Partnership, priority 2012, dated 2015).
Blank lines part the entries; values can stand above or below the compound they belong to. Residues, ends and D or L forms follow the SMILES beside them.

Key:
[1] = system: NO production induced by TLR-2 agonist R-FSL-1 in J774 cells; assay: Nitrite (NO) production induced by TLR-2 agonist R-FSL-1 in J774 cells; type: cell-based; details: 10^−6 M, 2 hr pre-exposure; R-FSL-1 300 ng/mL 17 hr
Experimental: J774 cells (ATCC passage 10 to 15) were cultured (2×10^5 cells/ml) in 24-well plates (Costar 3524 NY) in DMEM supplemented with FBS (10%).Three hours after plating, cell culture medium was replaced with 0.5 mL of the same medium containing 10^−6M of imidazolones derivatives for 2 hr pretreatment. Cells were then exposed to R-FSL1 (300 ng/ml) for 17 hr at 37° C. Cell culture media were collected and aliquots (10 μL) were mixed with 10 μL of 2,3 diaminonapthalene reagent (0.05 mg/mL in HCl 0.62M) for nitrite levels determination by fluorescence (λexc 365 nm and λem 430 nm) (Misko et al. (1993) Anal Biochem, 214, 11-16).

[2] = biological target: T1, recombinant soluble His-tagged CD36 (Homo sapiens, UniProt P16671); assay: SPR spectroscopy binding to CD36; details: for Kd: SPR response for ligand 100 nM to 30 μM fitted to Langmuir isotherm; for SPR ΔλSPR (nm): SPR response on CD36 functionalized surface
T1 construct: recombinant soluble His-tagged CD36 functionalized surface
T1 sequence (P16671 30-439 limits assumed): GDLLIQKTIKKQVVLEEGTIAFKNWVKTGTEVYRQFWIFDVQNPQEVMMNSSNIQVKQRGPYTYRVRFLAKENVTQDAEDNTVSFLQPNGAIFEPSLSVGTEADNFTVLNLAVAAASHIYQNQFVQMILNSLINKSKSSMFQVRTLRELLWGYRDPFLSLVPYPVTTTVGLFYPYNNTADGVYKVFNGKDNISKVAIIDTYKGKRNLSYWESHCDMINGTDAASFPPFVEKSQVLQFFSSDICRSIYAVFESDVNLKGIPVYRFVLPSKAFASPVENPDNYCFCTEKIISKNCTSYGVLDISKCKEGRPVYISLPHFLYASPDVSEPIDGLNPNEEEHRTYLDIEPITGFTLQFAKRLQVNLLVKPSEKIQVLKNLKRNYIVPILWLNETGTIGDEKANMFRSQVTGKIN
Experimental: The affinity of the small peptide ligand binding to a recombinant soluble His-tagged CD36 functionalized surface was screened by SPR sensing as previously described (Bolduc, O. R.; Lambert-Lanteigne, P.; Colin, D. Y.; Zhao, S. S.; Proulx, C.; Boeglin, D.; Lubell, W. D.; Pelletier, J. N.; Féthière, J.; Ong, H.; Masson, J.-F. Analyst. 2011, 136, 3142-3148). Briefly, the SPR sensors were prepared by immobilizing the His-tagged CD36 to 3-mercaptopropionyl-leucinyl-histidinyl-aspartyl-leucinyl-histidinyl-aspartic acid (3-Mpa-LHDLHD) with Nα,Nα-bis(carboxymethyl)-L-lysine at the C-terminus, a modified peptide monolayer competent to bind His-tagged biomolecules. A calibration curve of the SPR response for ligand concentrations ranging from 100 nM to 30 μM was fitted to the Langmuir isotherm (Equation 1) to determine K (K=1/Kd) for the CD36-ligand system. ΔλSPR=(K[ligand])ΔλSPRmax(1+K[ligand])^−1 (1)

[3] = system: MAP kinase JNK phosphorylation induced by POVPC in RAW 264.7 murine macrophage cells; assay: JNK assay: POVPC-induced JNK phosphorylation in RAW 264.7 macrophages; type: cell-based; details: for EC50: 2 h pre-treatment 10^−9 to 10^−6 M, then 10 μg/mL POVPC 30 min, phospho-JNK/total-JNK ratio, read-out: JNK-kinase cellular assay EC50; for inhibitory activity on MAP kinase JNK phosphorylation relative to [azaTyr^4]GHRP-6, in words: POVPC-stimulated RAW 264.7 cells
Experimental: RAW264.7 murine macrophage cells (American Type Culture Collection, Manassas, Va.) pre-treated with N-amino-imidazolin-2-one peptide for 2 h at concentration varying from 10^−9 to 10^−6 M were stimulated with 10 μg/mL POVPC (Cayman chemical, Ann Arbor, Mich.) for 30 min at 37° C. Cells were lysed on ice and centrifuged at 12,000×g. Aliquots of the resulting supernatant (30 μg of protein) were analyzed on SDS-PAGE and electrotransferred on nitrocellulose membrane. The revelation was performed by incubating the membrane with primary antibody against phospho-JNK or total-JNK (Cell signalling, Pickering, Canada) (1:500) overnight and with secondary HRP-conjugated goat anti-rabbit IgG antibody (Jackson Immunoresearch Laboratories Inc., West Grove, Pa.) (1:10,000) for 1 h. Membrane was visualized by chemiluminescence and intensity of bands was measured with Image Quant software (Molecular Dynamics, Sunnyvale, Calif.). The ratio of phospho-JNK/total-JNK was used to determine the phosphorylation state of JNK modulated by the tested peptide.
RAW 264.7 murine macrophage cells were seeded at 2×10^6 cells/well in a 6-well plate and starved in serum-free media overnight at 37° C. Cells were first pre-treated with the N-amino-imidazolin-2one peptide mimic at concentrations ranging from 10^−9 to 10^−6 M for 2 h and then stimulated with 10 μg/mL POVPC (Cayman chemical, Ann Arbor, Mich.) for 30 min at 37° C. Medium was then removed and cell plates were immediately frozen at −80° C. Cells were then scrapped into 100 μl of RIPA (50 mM Tris-HCl pH 7.5, 150 mM NaCl, 1% Triton X™-100, 0.1% SDS, 25 mM NaF) containing 1 mM PMSF and 1 mM Na3VO4, and incubated on ice for 30 min. The soluble fractions were isolated by centrifugation at 12,000×g for 30 min. The supernatant was collected and proteins were assayed with BCA reagent. Aliquots ([…]) were analyzed on 10% SDS-PAGE and electrotransferred on nitrocellulose membrane. Membrane was blocked with 5% BSA in TBS-T and incubated overnight with primary antibody against phospho-JNK or total-JNK (1:500) (Cell signalling, Pickering, Canada) in 5% BSA TBS-T. The membranes were then washed 5 times with TBS-T and incubated with secondary HRP-conjugated goat anti-rabbit IgG antibody (1:10,000) in 5% BSA TBS-T for 1 h at room temperature. The reaction was visualized by chemiluminescence using SuperSignal™ West Dura (Thermo scientific, Rockford, Ill.) and signals analyzed with Chemilmager™ 5500 (Alpha Innotech, San Leandro, Calif.). The intensity of each band was measured by densitometry using Image Quant™ software (Molecular Dynamics, Sunnyvale, Calif.) and the phosphorylation state was determined from the intensity ratio of phospho-JNK/total-JNK. To determine IC50 of inhibition curves, intensity ratio data were plotted using Prism™ 4 software (GraphPad, La Jolla, Calif.).

[4] = system: human TF-1 cells; assay: IL-1β-induced thymocyte (TF-1) proliferation, CyQUANT NF dye; type: cell-based; details: peptide 1 μM; human IL-1β 25 ng/mL; 48 h
Experimental: Immune cell proliferation was assessed by DNA intercalation of CyQUANT NF® fluorescent dye (Invitrogen, Carlsbad, Calif., USA). Essentially, human TF-1 cells (CRL-2003, American Type Culture Collection) were cultured in complete RPMI 1640 (WISENT Inc., Montréal, Quebec, Canada) supplemented with human GM-CSF (2 ng/ml, PeptroTech, Rocky Hill, N.J., USA). Cells (passage 5 and at least 85% viable, as verified by trypan blue dying) were reincorporated into RPMI 1640 medium deprived of phenol red (Gibco Invitrogen®, Carlsbad, Calif., USA) and of growth factors [i.e. fetal bovine serum (FBS) and GM-CSF] for 18 h and split (5×10^3 cells in 200 μL/well) into 96-well non-adherent flat bottom culture plates (Sarstedt®, Nümbrecht, Germany). Following 15 min pre-incubation with peptide or peptidomimetic (1 μM), the cells were treated with human IL-1β (25 ng/mL, PeproTech®, Rocky Hill, N.J., USA) and re-incubated. After 48 h, the cells were centrifuged for 7 min at 300 g, reincorporated into Hank's Buffered Salt Solution (1×HBSS, 50 μL/well, Gibco Invitrogen®, Carlsbad, Calif., USA) and transferred into a 96-well polystyrene black plate (Corning Incorporated, Corning, N.Y., USA). An additional 50 μL solution made of CyQUANT NF® dye (component A, 1×) and CyQUANT NF™ delivery agent (component B, 1×) in 1×HBSS was added to the cells in each well, which were covered with aluminum foil and incubated for 45 min. Fluorescence intensity was measured using a microplate reader (Perkin Elmer Wallac Envision® 2104; Perkin Elmer®, California, USA) with excitation at 485 nm and emission detection at 530 nm (FITC 485 and FITC 531 filters, respectively). Hexaplicate experiments were repeated three times and results were analyzed by one-way analysis of variance (ANOVA) factoring for treatments, and data are presented as mean±standard error of the mean (SEM).

Compound: Cc1c(-c2ccccc2)n(NC(=O)[C@H](C)NC(=O)[C@@H](Cc2c[nH]c3ccccc23)NC(=O)[C@@H](N)Cc2cnc[nH]2)c(=O)n1C(Cc1ccccc1)C(=O)N[C@@H](CCCCN)C(N)=O (mixture of isomers) [DNDB3-01, His-D-Trp-Ala-(N-amino-4-methyl-5-phenyl-imidazolin-2-one)-DL-Phe-Lys-NH2]
effect on nitrite/NO production induced by R-FSL-1, in words [1]: comparable to that of EP80317

Compound: Cc1ccc(-c2c(C)n(C(Cc3ccccc3)C(=O)N[C@@H](CCCCN)C(N)=O)c(=O)n2NC(=O)[C@H](C)NC(=O)[C@@H](Cc2c[nH]c3ccccc23)NC(=O)[C@@H](N)Cc2cnc[nH]2)cc1 (mixture of isomers) [DNDB3-03, His-D-Trp-Ala-(N-amino-4-methyl-5-p-toluoyl-imidazol-2-one)-DL-Phe-Lys-NH2]
effect on nitrite/NO production induced by R-FSL-1, in words [1]: comparable to that of EP80317

Kd [2]: 4.9 µM
SPR ΔλSPR (nm) [2]: 1.1 nm
Compound: Cc1cn(NC(=O)[C@H](C)NC(=O)[C@@H](Cc2c[nH]c3ccccc23)NC(=O)[C@@H](N)Cc2c[nH]cn2)c(=O)n1C(Cc1ccccc1)C(=O)N[C@@H](CCCCN)C(N)=O (stereo partly drawn) [31a, His-D-Trp-Ala-(N-amino-4-methyl-imidazolin-2-one)-D-Phe-Lys-NH2]
EC50 [3]: 0.0554 µM
inhibitory activity on MAP kinase JNK phosphorylation relative to [azaTyr^4]GHRP-6, in words [3]: increased inhibitory activity

affinity for the CD36 receptor relative to [azaTyr^4]GHRP-6, in words ([2]; SPR): comparable affinity
SPR ΔλSPR (nm) [2]: 1.6 nm
Compound: C[C@H](NC(=O)[C@@H](Cc1c[nH]c2ccccc12)NC(=O)[C@@H](N)Cc1c[nH]cn1)C(=O)Nn1cc(Cc2ccccc2)n([C@H](Cc2ccccc2)C(=O)N[C@@H](CCCCN)C(N)=O)c1=O [31b, His-D-Trp-Ala-(N-amino-4-benzyl-imidazolin-2-one)-D-Phe-Lys-NH2]
EC50 [3]: > 10 µM
inhibitory activity on MAP kinase JNK phosphorylation relative to [azaTyr^4]GHRP-6, in words [3]: relatively lower inhibitory activity

Compound: Cc1c(-c2ccccc2)n(NC(=O)[C@H](C)NC(=O)[C@@H](Cc2c[nH]c3ccccc23)NC(=O)[C@@H](N)Cc2cnc[nH]2)c(=O)n1[C@@H](Cc1ccccc1)C(=O)N[C@@H](CCCCN)C(N)=O [DND B2-109, His-D-Trp-Ala-(N-amino-4-methyl-5-phenyl-imidazol-2-one)-L-Phe-Lys-NH2]
effect on nitrite/NO production induced by R-FSL-1, in words [1]: comparable to that of EP80317

Compound: CC(C)C[C@@H](NC(=O)[C@@H](CCC(=O)O)NC(=O)[C@@H](C(C)C)N1CC=CCN(NC(=O)[C@@H](Cc2ccc(O)cc2)NC(=O)[C@H](N)CCCNC(=N)N)C1=O)C(=O)N[C@H](C)C(N)=O [[Nad^3]-101.10, D-Arg-D-Tyr-Nad-D-Val-D-Glu-D-Leu-D-Ala-NH2] (HELM PEPTIDE1{[dR].[dY].[CC(C)[C@H](C(=O)[*:2])N1CC=CCN(N[*:1])C1=O].[dE].[dL].[dA].[am]}$$$$V2.0)
exacerbated proliferation over the level of exogenous IL-1β [4]: 53%

Compound: CC(C)C[C@@H](NC(=O)[C@@H](CCC(=O)O)NC(=O)[C@@H](C(C)C)N1CCCN(NC(=O)[C@@H](Cc2ccc(O)cc2)NC(=O)[C@H](N)CCCNC(=N)N)C1=O)C(=O)N[C@H](C)C(N)=O [[Nap^3]-101.10, D-Arg-D-Tyr-Nap-D-Val-D-Glu-D-Leu-D-Ala-NH2] (HELM PEPTIDE1{[dR].[dY].[CC(C)[C@H](C(=O)[*:2])N1CCCN(N[*:1])C1=O].[dE].[dL].[dA].[am]}$$$$V2.0)
diminished IL-1β-induced proliferation [4]: 41%

Compound: C[C@H](NC(=O)[C@@H](Cc1c[nH]c2ccccc12)NC(=O)[C@@H](N)Cc1c[nH]cn1)C(=O)NN(Cc1ccc(O)cc1)C(=O)N[C@H](Cc1ccccc1)C(=O)N[C@@H](CCCCN)C(N)=O [[azaTyr^4]GHRP-6, His-D-Trp-Ala-AzaTyr-D-Phe-Lys-NH2, reference compound] (HELM PEPTIDE1{H.[dW].A.[O=C(N(Cc1ccc(O)cc1)N[*:1])[*:2]].[dF].K.[am]}$$$$V2.0)
SPR ΔλSPR (nm) [2]: 1.8 nm
EC50 [3]: 0.214 µM

Compound: C[C@H](NC(=O)[C@@H](Cc1c[nH]c2ccccc12)NC(=O)[C@@H](N)Cc1cnc[nH]1)C(=O)NN(Cc1ccc(O)cc1)C(=O)N[C@H](Cc1ccccc1)C(=O)N[C@@H](CCCCN)C(N)=O [[azaTyr^4]GHRP-6, His-D-Trp-Ala-AzaTyr-D-Phe-Lys-NH2, reference compound] (HELM PEPTIDE1{H.[dW].A.[O=C(N(Cc1ccc(O)cc1)N[*:1])[*:2]].[dF].K.[am]}$$$$V2.0)
Kd [2]: 5 µM

Compound: HAlC-2MeDTrp-DLys-Trp-DPhe-Lys-NH2 [EP80317, reference compound]
effect on nitrite/NO production induced by R-FSL-1, in words [1]: negatively modulated nitrite production

Compound: His-D-Trp-Ala-(N-amino-4-methyl-imidazolin-2-one)-D-Phe-Lys-NH2 [YGR 401-2]
effect on nitrite/NO production induced by R-FSL-1, in words [1]: comparable to that of EP80317

Compound: His-D-Trp-Ala-(N-amino-4-methyl-imidazolin-2-one)-L-Phe-Lys-NH2 [YGR401-1]
effect on nitrite/NO production induced by R-FSL-1, in words [1]: comparable to that of EP80317

Compound: His-azaPheAla-Trp-DPhe-Ala-NH2 [CP-1A(i), reference compound]
effect on nitrite/NO production induced by R-FSL-1, in words [1]: did not modulate NO production
